{"source": "paper PMC4255919", "about": "(Nature, 2014)", "key": {"[1]": {"target": "GluCl (C. elegans GluClα, GluClcryst) (Caenorhabditis elegans, UniProt G5EBR3, DEL364-421/INS363AGT)", "test": "radioligand competition with [3H]-ivermectin", "format": "binding"}, "[2]": {"target": "T1, GluCl (C. elegans GluClα, GluClcryst) (Caenorhabditis elegans, UniProt G5EBR3, INS363AGT/DEL364-421)", "T1 sequence (G5EBR3 with tags, fused parts or gaps INS363AGT/DEL364-421)": "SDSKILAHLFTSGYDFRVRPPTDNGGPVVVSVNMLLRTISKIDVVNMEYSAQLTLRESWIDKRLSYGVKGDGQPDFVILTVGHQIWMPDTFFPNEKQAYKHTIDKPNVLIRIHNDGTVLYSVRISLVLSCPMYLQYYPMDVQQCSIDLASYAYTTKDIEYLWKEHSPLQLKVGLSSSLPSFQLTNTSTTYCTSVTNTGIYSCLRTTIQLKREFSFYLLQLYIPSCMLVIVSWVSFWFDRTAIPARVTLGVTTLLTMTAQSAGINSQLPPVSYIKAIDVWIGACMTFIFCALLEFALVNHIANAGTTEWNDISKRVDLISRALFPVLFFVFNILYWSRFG", "test": "X-ray crystal structure at […] Å", "format": "binding"}}}
{"smiles": "CCCCCCCC/C=C\\CCCCCCCC(=O)O[C@H](COC(=O)CCCCCCCCCCCCCCC)COP(=O)(O)OC[C@H](N)C(=O)O", "note": "[POPS, 1-palmitoyl-2-oleoyl-sn-glycero-3-phosphoserine]", "values": [{"measurement": "Ki", "setting": "[1]", "value": 167, "unit": "µM"}]}
{"smiles": "CCCCCCCC/C=C\\CCCCCCCC(=O)O[C@@H](COC(=O)CCCCCCCCCCCCCCC)COP(=O)([O-])OCC[N+](C)(C)C", "note": "[POPC, 1-palmitoyl-2-oleoyl-sn-glycero-3-phosphocholine]", "values": [{"measurement": "X-ray crystal structure at 3.2 Å", "setting": "[2]", "value": "We modeled these densities as POPC molecules with the phosphocholine head group pointing towards the center of the pore"}]}
